Laboratory results taken from patent US20250043299A1, “POINT MUTATIONS THAT BOOST AROMATIC AMINO ACID PRODUCTION AND CO2 ASSIMILATION IN PLANTS” (Wisconsin Alumni Research Foundation, priority 2021, published 2025).
One block for each molecule: values may come before it.

Columns and labels:
DHS1^WT [1] = biological target: T1, DHS1^WT (Arabidopsis thaliana, UniProt P29976); experiment: DHS enzyme assay (colorimetric), recombinant DHS1^WT; type: biochemical; details: FIG. 2D
T1 construct: without the predicted plastid transit peptide (amino acid residues; 49-525, 34-507, and 52-527, respectively); made in house; host or cells: E. coli Rosetta-2
Method: (§1) To generate recombinant DHS proteins the pET28a vectors carrying the A. thaliana DHS1 (AtDHS1), AtDHS2, or AtDHS3 WT sequence without the predicted plastid transit peptide (amino acid residues; 49-525, 34-507, and 52-527, respectively) were expressed in E. coli Rosetta-2 cells and purified using Ni-affinity chromatography, exactly as was conducted previously (9). To generate DHS proteins with individual sota mutations via site-directed mutagenesis, these pET28a plasmid templates were diluted by 500-fold, mixed with 0.04 U/μL Phusion DNA polymerase (Thermo Scientific), 0.2 mM deoxynucleoside triphosphates (dNTPs), 1× Phusion reaction buffer (Thermo Scientific), and 0.5 μM forward and reverse mutagenesis primers (Table 10). The PCR reaction was run using the following protocol: 98° C. for 30 s followed by 20 cycles of 10 s at 98° C., 20 s at 70° C., 4.5 min at 72° C. with a final extension at 72° C. for 10 min. The PCR products were purified using a QIAquick Gel Extraction Kit (QIAGEN), treated with FastDigest DpnI (Thermo Scientific) to digest methylated plasmid template DNA for 20 min at 37° C., and transformed into E. coli cells. The mutagenized pET28a plasmids were sequenced to confirm that no errors were introduced during the mutagenesis process.
(§2) The DHS enzyme assays were conducted using the colorimetric method that we recently described (9). Briefly, the enzyme solution (7.7 μl) containing 50 mM Hepes (pH 7.4) was preincubated with an effector molecule(s) at room temperature for 15 min. For assays using recombinant protein and enzyme fractions isolated from plant leaves, 0.01 to 0.1 μg and approximately 50 μg of proteins were used, respectively. After adding 0.5 μl of 0.1 M dithiothreitol, the samples were further incubated at room temperature for 15 min. During these incubations, the substrate solution containing 50 mM Hepes (pH 7.4), 2 mM MnCl2, 4 mM E4P, and 4 mM PEP at final concentration was preheated at 37° C. The enzyme reaction was started by adding 6.8 μl of the substrate solution, then incubated at 37° C. for 30 min, and terminated by adding 30 μl of 0.6 M trichloroacetic acid. After a brief centrifugation, 5 μl of 200 mM NaIO4 (sodium meta-periodate) in 9 N H3PO4 was added to oxidize the enzymatic product and to incubate at 25° C. for 20 min. To stop the oxidation reaction, 20 μl of 0.75 M NaAsO2 (sodium arsenite), which was dissolved in 0.5 M Na2SO4 and 0.05 M H2SO4, was added and immediately mixed. After 5 min of incubation at room temperature, one-third of the sample solution was transferred to a new tube to be mixed with 50 μl of 40 mM thiobarbituric acid and incubated at 99° C. for 15 min in a thermal cycler. The mixture was added to 600 μl of cyclohexanone in eight-strip solvent-resistant plastic tubes, mixed vigorously, and centrifuged at 4500 g for 3 min to separate water- and cyclohexanone-based layers for the extraction off the developed pink chromophore. The absorbance of the pink supernatant was read at 549 nm with the microplate reader (Infinite 200 PRO, TECAN) to calculate DAHP production with the molar extinction coefficient at 549 nm (ε=549 nm) of 4.5×10^4 M^−1 cm^−1. Reaction mixtures with boiled enzymes were run in parallel and used as negative controls to estimate the background signal.

DHS2^WT [2] = biological target: T2, DHS2^WT (Arabidopsis thaliana, UniProt Q00218); experiment: DHS enzyme assay, recombinant DHS2^WT; type: biochemical; details: for effect on DHS2 activity (effector screening): FIG. 2D
T2 construct: without the predicted plastid transit peptide (amino acid residues; 49-525, 34-507, and 52-527, respectively); made in house; host or cells: E. coli Rosetta-2
Method: as §1, §2

DHS2^WT [3] = biological target: T2, DHS2^WT; experiment: Differential scanning fluorimetry (DSF) protein-ligand affinity analysis, DHS2^WT; type: binding; details: ligand at 1 mM
Method: (§3) To examine the impact of the sota mutations on the interaction between DHS and AAA effectors (FIG. 22), a differential scanning fluorimetry (DSF) analysis (48) was conducted using the recombinant DHS2^WT and DHS2^A4 proteins. […] The fluorescence signal was monitored during the stepwise increase in temperature (1° C. per minute from 25° C. to 95° C.). The Tm was calculated by nonlinear regression analysis using the Boltzmann sigmoidal equation (48).

DHS2^A4 = biological target: T3, DHS2^A4 (Arabidopsis thaliana, UniProt Q00218, G222S); experiment: Differential scanning fluorimetry (DSF) protein-ligand affinity analysis, DHS2^A4; type: binding; details: ligand at 1 mM
T3 construct: without the predicted plastid transit peptide (amino acid residues; 49-525, 34-507, and 52-527, respectively); made in house; host or cells: E. coli
Method: as §3

[4] = biological target: T4, Arabidopsis thaliana DHS1 (AtDHS1), wild type (DHS1^WT), SEQ ID NO:1 (Arabidopsis thaliana, UniProt P29976); experiment: DHS enzyme assay with effector, Arabidopsis DHS1 WT; type: biochemical; details: effector screening (FIG. 2D)
T4 construct: without the predicted plastid transit peptide (amino acid residues; 49-525, 34-507, and 52-527, respectively); made in house; host or cells: E. coli Rosetta-2
Method: as §1, with “To” for “To generate recombinant DHS proteins the pET28a vectors carrying the A. thaliana DHS1 (AtDHS1), AtDHS2, or AtDHS3 WT sequence without the predicted plastid transit peptide (amino acid residues; 49-525, 34-507, and 52-527, respectively) were expressed in E. coli Rosetta-2 cells and purified using Ni-affinity chromatography, exactly as was conducted previously (9). To”
(§4) The DHS enzyme assays were conducted using the colorimetric method that we recently described (9). Briefly, the enzyme solution (7.7 μl) containing 50 mM Hepes (pH 7.4) was preincubated with an effector molecule(s) at room temperature for 15 min. For assays using recombinant protein and enzyme fractions isolated from plant leaves, 0.01 to 0.1 μg and approximately 50 μg of proteins were used, respectively. After adding 0.5 μl of 0.1 M dithiothreitol, the samples were further incubated at room temperature for 15 min. During these incubations, the substrate solution containing 50 mM Hepes (pH 7.4), 2 mM MnCl2, 4 mM E4P, and 4 mM PEP at final concentration was preheated at 37° C. The enzyme reaction was started by adding 6.8 μl of the substrate solution, then incubated at 37° C. for 30 min, and terminated by adding 30 μl of 0.6 M trichloroacetic acid. After a brief centrifugation, 5 μl of 200 mM NaIO4 (sodium meta-periodate) in 9 N H3PO4 was added to oxidize the enzymatic product and to incubate at 25° C. for 20 min. To stop the oxidation reaction, 20 μl of 0.75 M NaAsO2 (sodium arsenite), which was dissolved in 0.5 M Na2SO4 and 0.05 M H2SO4, was added and immediately mixed. […]

DHS1^B4 = biological target: T5, DHS1^B4 (Arabidopsis thaliana, UniProt P29976, G244R); experiment: DHS enzyme assay, recombinant DHS1^B4; type: biochemical
T5 construct: without the predicted plastid transit peptide (amino acid residues; 49-525, 34-507, and 52-527, respectively); made in house; host or cells: E. coli
Method: as §1, §2

[5] = biological target: T6, Arabidopsis thaliana DHS1 (SEQ ID NO:1) variant DHS1^B4 (sotaB4), G244R (Arabidopsis thaliana, UniProt P29976, G244R); experiment: DHS enzyme assay with effector, DHS1 sotaB4; type: biochemical
T6 construct: without the predicted plastid transit peptide (amino acid residues; 49-525, 34-507, and 52-527, respectively); made in house; host or cells: E. coli
Method: as §1, §2

DHS1^WT [6] = biological target: T1, DHS1^WT; details: AAAs, chorismate, caffeate: from Yokoyama et al., Plant Cell, 2021, cited from earlier work
DHS2^A11 = biological target: T7, DHS2^A11 (Arabidopsis thaliana, UniProt Q00218, A224T); experiment: DHS enzyme assay, recombinant DHS2^A11; type: biochemical; details: effector up to 1 mM
T7 construct: without the predicted plastid transit peptide (amino acid residues; 49-525, 34-507, and 52-527, respectively); made in house; host or cells: E. coli
Method: as §1, §2

DHS2^F1 = biological target: T8, DHS2^F1 (Arabidopsis thaliana, UniProt Q00218, L136F); experiment: DHS enzyme assay, recombinant DHS2^F1; type: biochemical; details: effector up to 1 mM
T8 construct: without the predicted plastid transit peptide (amino acid residues; 49-525, 34-507, and 52-527, respectively); made in house; host or cells: E. coli
Method: as §1, §2

DHS3^G1 = experiment: DHS enzyme assay, recombinant DHS3^G1; type: biochemical, Arabidopsis thaliana
Method: as §1, with “To” for “To generate recombinant DHS proteins the pET28a vectors carrying the A. thaliana DHS1 (AtDHS1), AtDHS2, or AtDHS3 WT sequence without the predicted plastid transit peptide (amino acid residues; 49-525, 34-507, and 52-527, respectively) were expressed in E. coli Rosetta-2 cells and purified using Ni-affinity chromatography, exactly as was conducted previously (9). To”
as §4

DHS3^H1 = experiment: DHS enzyme assay, recombinant DHS3^H1; type: biochemical, Arabidopsis thaliana
Method: as §1, with “To” for “To generate recombinant DHS proteins the pET28a vectors carrying the A. thaliana DHS1 (AtDHS1), AtDHS2, or AtDHS3 WT sequence without the predicted plastid transit peptide (amino acid residues; 49-525, 34-507, and 52-527, respectively) were expressed in E. coli Rosetta-2 cells and purified using Ni-affinity chromatography, exactly as was conducted previously (9). To”
as §4

[7] = biological target: T9, Arabidopsis thaliana DHS2 (SEQ ID NO:2) variant DHS2^A4 (sotaA4), G222S (Arabidopsis thaliana, UniProt Q00218, G222S); experiment: Differential scanning fluorimetry protein-ligand affinity analysis, DHS2 sotaA4; type: binding; details: ligand at 1 mM
T9 construct: without the predicted plastid transit peptide (amino acid residues; 49-525, 34-507, and 52-527, respectively); made in house; host or cells: E. coli
Method: (A) Simplified pathway map of AAAs and AAA-derived metabolites used in the effector screening. […] Data are means±SEM (n=3 independent assays).
as §3

DHS3^WT = details: AAAs: from Yokoyama et al., Plant Cell, 2021; cited from earlier work
[8] = biological target: T10, Arabidopsis thaliana DHS2 (AtDHS2), wild type (DHS2^WT), SEQ ID NO:2 (Arabidopsis thaliana, UniProt Q00218); details: reference 9; cited from earlier work
T10 construct: without the predicted plastid transit peptide (amino acid residues; 49-525, 34-507, and 52-527, respectively); made in house; host or cells: E. coli Rosetta-2
T10 sequence (Q00218 34-507): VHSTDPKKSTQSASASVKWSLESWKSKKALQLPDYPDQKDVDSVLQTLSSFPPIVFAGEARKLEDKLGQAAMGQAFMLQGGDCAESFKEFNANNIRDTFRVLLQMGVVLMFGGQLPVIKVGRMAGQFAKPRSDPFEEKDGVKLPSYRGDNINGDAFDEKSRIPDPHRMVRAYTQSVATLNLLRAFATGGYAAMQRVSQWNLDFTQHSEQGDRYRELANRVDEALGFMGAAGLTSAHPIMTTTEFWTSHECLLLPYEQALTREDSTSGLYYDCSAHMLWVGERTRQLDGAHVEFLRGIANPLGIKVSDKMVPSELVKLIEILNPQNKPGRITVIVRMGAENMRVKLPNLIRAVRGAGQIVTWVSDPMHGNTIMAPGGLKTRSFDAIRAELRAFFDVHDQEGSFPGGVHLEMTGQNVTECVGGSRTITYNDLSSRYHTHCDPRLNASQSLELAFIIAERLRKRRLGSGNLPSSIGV

T5 sequence (P29976 49-525 G244R): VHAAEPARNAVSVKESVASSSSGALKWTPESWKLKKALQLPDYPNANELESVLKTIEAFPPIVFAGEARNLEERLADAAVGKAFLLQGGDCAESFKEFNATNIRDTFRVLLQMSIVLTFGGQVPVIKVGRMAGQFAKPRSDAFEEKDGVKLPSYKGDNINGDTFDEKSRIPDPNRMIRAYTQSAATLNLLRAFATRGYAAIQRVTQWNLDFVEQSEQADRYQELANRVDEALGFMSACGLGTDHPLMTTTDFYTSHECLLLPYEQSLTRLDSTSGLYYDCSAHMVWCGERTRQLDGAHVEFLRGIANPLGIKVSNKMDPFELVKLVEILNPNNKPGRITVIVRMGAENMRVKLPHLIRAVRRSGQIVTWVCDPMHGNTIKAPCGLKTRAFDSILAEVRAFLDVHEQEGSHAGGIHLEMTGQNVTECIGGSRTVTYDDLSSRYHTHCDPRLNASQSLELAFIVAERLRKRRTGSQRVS
T1 sequence (P29976 49-525): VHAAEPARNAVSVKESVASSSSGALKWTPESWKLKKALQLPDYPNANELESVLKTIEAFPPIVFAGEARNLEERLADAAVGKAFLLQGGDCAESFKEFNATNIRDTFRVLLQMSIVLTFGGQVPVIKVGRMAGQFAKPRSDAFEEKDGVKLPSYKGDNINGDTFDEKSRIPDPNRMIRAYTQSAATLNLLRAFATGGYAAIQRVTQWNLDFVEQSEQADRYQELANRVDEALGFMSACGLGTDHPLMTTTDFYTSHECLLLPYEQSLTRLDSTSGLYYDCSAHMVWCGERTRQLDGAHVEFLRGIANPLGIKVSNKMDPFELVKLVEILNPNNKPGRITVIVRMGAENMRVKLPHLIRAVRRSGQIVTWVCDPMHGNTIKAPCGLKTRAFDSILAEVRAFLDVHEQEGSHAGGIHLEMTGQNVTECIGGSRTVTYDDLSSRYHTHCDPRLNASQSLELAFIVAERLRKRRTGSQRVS
T2 sequence (Q00218 34-507): as the sequence (Q00218 34-507) above
T4 sequence (P29976 49-525): as the sequence (P29976 49-525) above
T8 sequence (Q00218 34-507 L136F): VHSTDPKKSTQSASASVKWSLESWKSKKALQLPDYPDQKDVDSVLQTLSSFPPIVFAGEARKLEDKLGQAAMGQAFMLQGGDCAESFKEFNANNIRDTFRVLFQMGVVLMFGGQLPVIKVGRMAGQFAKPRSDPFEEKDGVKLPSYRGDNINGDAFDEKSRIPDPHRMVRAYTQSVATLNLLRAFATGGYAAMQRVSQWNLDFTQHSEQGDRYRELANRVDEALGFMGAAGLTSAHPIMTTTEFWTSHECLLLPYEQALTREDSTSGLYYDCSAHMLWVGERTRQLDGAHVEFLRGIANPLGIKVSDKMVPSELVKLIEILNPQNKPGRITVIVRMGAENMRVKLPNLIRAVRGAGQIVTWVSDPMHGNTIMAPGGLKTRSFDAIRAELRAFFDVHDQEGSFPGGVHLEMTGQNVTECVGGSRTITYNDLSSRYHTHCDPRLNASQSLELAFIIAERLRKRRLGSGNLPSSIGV
T3 sequence (Q00218 34-507 G222S): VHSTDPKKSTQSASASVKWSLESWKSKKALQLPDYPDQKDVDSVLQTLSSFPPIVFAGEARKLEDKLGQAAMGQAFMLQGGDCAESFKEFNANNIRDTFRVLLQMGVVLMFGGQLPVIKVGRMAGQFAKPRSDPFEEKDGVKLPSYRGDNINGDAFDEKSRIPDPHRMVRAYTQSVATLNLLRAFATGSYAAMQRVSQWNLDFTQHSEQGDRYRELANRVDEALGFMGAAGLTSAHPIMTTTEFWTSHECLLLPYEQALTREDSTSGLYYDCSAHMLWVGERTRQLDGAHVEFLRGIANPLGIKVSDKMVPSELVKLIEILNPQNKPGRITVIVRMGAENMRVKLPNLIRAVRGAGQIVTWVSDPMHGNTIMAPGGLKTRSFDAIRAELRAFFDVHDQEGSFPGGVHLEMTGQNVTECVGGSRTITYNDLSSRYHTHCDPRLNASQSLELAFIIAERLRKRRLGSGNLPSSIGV
T9 sequence (Q00218 34-507 G222S): as above
T6 sequence (P29976 49-525 G244R): as the sequence (P29976 49-525 G244R) above
T7 sequence (Q00218 34-507 A224T): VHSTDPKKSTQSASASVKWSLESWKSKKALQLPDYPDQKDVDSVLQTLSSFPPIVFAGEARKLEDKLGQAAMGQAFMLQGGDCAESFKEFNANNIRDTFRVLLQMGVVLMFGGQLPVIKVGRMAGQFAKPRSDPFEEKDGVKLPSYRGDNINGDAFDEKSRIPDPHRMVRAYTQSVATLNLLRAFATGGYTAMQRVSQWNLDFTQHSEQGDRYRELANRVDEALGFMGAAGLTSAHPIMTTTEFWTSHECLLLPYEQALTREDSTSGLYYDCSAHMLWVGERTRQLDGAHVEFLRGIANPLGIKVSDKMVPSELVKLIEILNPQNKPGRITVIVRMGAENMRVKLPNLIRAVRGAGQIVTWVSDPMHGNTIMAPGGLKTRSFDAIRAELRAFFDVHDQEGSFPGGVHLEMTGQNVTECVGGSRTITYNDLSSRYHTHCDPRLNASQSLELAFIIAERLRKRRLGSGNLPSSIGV

Structure (SMILES): O=C(O)Cc1c[nH]c2ccccc12 [IAA, indole-3-acetate]
effect on DHS1 activity (effector screening) (DHS1^WT [1]): inhibit
effect on DHS2 activity (effector screening) (DHS2^WT [2]): inhibit

Structure (SMILES): N[C@@H](Cc1ccccc1)C(=O)O [Phe, phenylalanine]
effect on melting temperature (Tm) of DHS2^WT (DHS2^WT [3]): no impact on the Tm
effect on melting temperature (Tm) / binding of DHS2^A4 (DHS2^A4): no impact on the Tm

inhibition at 1000 µM (DHS2^WT [2]; effector at 1 mM): ~30%
Structure (SMILES): NCCc1ccc(O)cc1 [tyramine]

Structure (SMILES): c1ccc2[nH]ccc2c1 [indole]
inhibition of DHS1^WT activity [4]: did not affect the activity of DHS1

Structure (SMILES): O=C(O)/C=C/c1ccc(O)c(O)c1 [Caffeate]
inhibition of DHS1^B4 activity (DHS1^B4): still strongly inhibited
IC50 (DHS1^B4; read-out: IC50 of effector molecule on DHS1^B4): 65.2 µM
IC50 [5]: 65.2 µM
IC50 (DHS1^WT [6]; read-out: IC50 of effector molecule on DHS1^WT): 108 µM

Structure (SMILES): N[C@@H](Cc1ccc(O)cc1)C(=O)O [Tyr, tyrosine]
IC50 of effector molecule on DHS1^B4 (DHS1^B4; recombinant enzyme): Not inhibited
inhibition of DHS2^A11 activity (DHS2^A11): not inhibited
inhibition of DHS2^F1 activity (DHS2^F1): not inhibited
IC50 of effector molecule on DHS3^G1 (DHS3^G1): Not inhibited
IC50 of effector molecule on DHS3^H1 (DHS3^H1): Not inhibited
binding (DSF) [7]: still binds Tyr and Trp
IC50 of effector molecule on DHS1^WT (DHS1^WT [6]): Not inhibited
IC50 of effector molecule on DHS3^WT (DHS3^WT): Not inhibited
inhibition of DHS2 [8]: inhibit Arabidopsis DHS2

Structure (SMILES): NCCc1c[nH]c2ccccc12 [tryptamine]
effect on DHS1 activity (effector screening) (DHS1^WT [1]): did not affect the activity
effect on DHS2 activity (effector screening) (DHS2^WT [2]): slight reduction
inhibition of DHS1^WT activity [4]: did not affect the activity of DHS1
